The text below walks through data of patent US11401255B2, “Small molecule activators of Parkin enzyme function” (Mayo Foundation for Medical Education and Research, priority 2016, dated 2022).

Test [1] concerns the target T1, Parkin (Homo sapiens (Human), UniProt O60260). The experiment in a line: In vitro E2 discharge assay. The conditions noted are these: Ub-loaded UbcH7, presence of PINK1, vs DMSO. Format: biochemical. The protocol:
FIGS. 15A-15H show Parkin activation in primary fibroblasts, neuronal cells and in vitro. Positive control (PC) cells were treated with DMSO and 10 μM of CCCP. Negative control (NC) cells were treated with 3.5 μM CCCP, some cells were left untreated (−). […] Vinculin was used as loading control. […] FIG. 15C: Human fibroblasts were directly converted to neurons and treated as in FIG. 15B. […] Beta III tubulin confirmed successful conversion of fibroblasts to iNeurons. FIG. 15D: Rat PC12 cells were treated as in FIG. 15A. Western blots show enhanced ubiquitylation of MFN2 and TOM70, and robust pSer65-Ub induction similar to PC, but not NC cells. FIG. 15E: In vitro E2 discharge assay. Recombinant Parkin was pre-incubated with compound 4 or DMSO as control and was mixed to Ub-loaded UbcH7. […] Control reactions were performed without PINK1 or Parkin. FIG. 15F: In vitro assay with isolated mitochondria from untreated or CCCP-treated HeLa cells lacking Parkin. Mitochondrial preparations were mixed with recombinant Parkin, E1, UbcH7, ATP and either compound 4 or DMSO as a control and incubated for the indicated times. […] Control samples were incubated in reaction mix without Parkin. […]
As the first readout for Parkin activity, E2 Ub discharge assays were performed, complementary to the Ub-charging assays of Parkin C431S in cells. […]

Test [2] deals with HeLa mtKeima cells. The experiment in a line: Mitophagy assay (mtKeima HCI). Format: cell-based, human. The following applies: 5 μM, low-dose CCCP. The procedure: HCI in 384-well plates was used to calculate the ratio of acidic to neutral mtKeima. Upon treatment with 10 μM CCCP, there was significant increase of the mtKeima ratio. Pre-treatment with compound 4 (dashed line, here shown 5 μM of compound 4) induced this also at low-dose CCCP concentrations while low dose CCCP alone (solid line) had only little effect on the ratio of acidic to neutral mtKeima.
HeLa mtKeima cells were pre-treated for 2 h with 12 different doses of Compounds 1, 2, 3, 4, and 31 before low-dose CCCP was added (3 μM final concentration). 10 μM CCCP was added to positive control wells. Cells were imaged live after 4 h and 8 h of CCCP. Values were normalized to the positive and negative (3 μM CCCP) control values for each time point. Curve fitting was used to calculate EC50 values.
To confirm mitophagy, HeLa cells expressing the pH-sensitive, mitochondria-targeted reporter mitoKeima46 were employed. A characteristic shift in the excitation wavelength of mitoKeima upon lysosomal fusion was used to determine mitochondrial turnover using […]. For mitoKeima experiments (Kim et al., Mol. Neurodegen. (2016) 11:55), cells were seeded in DMEM media lacking phenol red […]. Hoechst counterstain was added as a 5× stock in 5 μL volume. […] Segmentation of cells was performed as above and for each region of interest the ratio of acidic and neutral mitoKeima was calculated. […]

The target in test [3] is T1, Parkin. The test can be described thus: Thermal shift (protein melting) assay. The conditions noted are these: 500 nM compound, 50 ng purified Parkin, SYPRO orange. Format: binding. The procedure:
FIGS. 15A-15H show Parkin activation in primary fibroblasts, neuronal cells and in vitro. Positive control (PC) cells were treated with DMSO and 10 μM of CCCP. Negative control (NC) cells were treated with 3.5 μM CCCP, some cells were left untreated (−). […] Vinculin was used as loading control. […] FIG. 15C: Human fibroblasts were directly converted to neurons and treated as in FIG. 15B. […] Beta III tubulin confirmed successful conversion of fibroblasts to iNeurons. FIG. 15D: Rat PC12 cells were treated as in FIG. 15A. Western blots show enhanced ubiquitylation of MFN2 and TOM70, and robust pSer65-Ub induction similar to PC, but not NC cells. FIG. 15E: In vitro E2 discharge assay. Recombinant Parkin was pre-incubated with compound 4 or DMSO as control and was mixed to Ub-loaded UbcH7. […] Control reactions were performed without PINK1 or Parkin. FIG. 15F: In vitro assay with isolated mitochondria from untreated or CCCP-treated HeLa cells lacking Parkin. […]
To validate direct binding of activating compounds to Parkin as predicted from the in silico approach, a thermofluor shift assay was used. Recombinant purified Parkin was mixed together with compound 4 or DMSO as a control and the melting temperature was monitored using SYPRO Orange dye.
The thermal shift assay was performed as follows. […] Data was exported and analyzed using the Protein Melting Analysis tool (Roche Applied Science).

T1 sequence (O60260 whole entry): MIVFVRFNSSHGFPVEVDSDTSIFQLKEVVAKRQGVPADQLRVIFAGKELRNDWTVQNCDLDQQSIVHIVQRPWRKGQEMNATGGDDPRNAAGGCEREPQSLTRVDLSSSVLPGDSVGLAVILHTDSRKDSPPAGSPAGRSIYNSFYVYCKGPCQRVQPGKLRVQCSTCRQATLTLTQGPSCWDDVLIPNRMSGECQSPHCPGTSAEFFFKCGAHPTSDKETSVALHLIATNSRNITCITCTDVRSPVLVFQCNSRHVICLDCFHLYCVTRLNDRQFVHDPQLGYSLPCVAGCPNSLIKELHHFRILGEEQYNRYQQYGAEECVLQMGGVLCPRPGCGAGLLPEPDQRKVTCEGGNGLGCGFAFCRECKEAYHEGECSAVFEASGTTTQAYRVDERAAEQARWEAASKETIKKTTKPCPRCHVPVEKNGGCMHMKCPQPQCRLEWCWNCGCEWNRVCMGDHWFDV

With `O=C(Cn1ccnc1-c1ccccn1)Nc1ccc(-c2ccccc2)cc1` [Compound 4], the E2 discharge result in test [1] is listed as “slightly more E2 discharge”. Also, in test [2], the “mitophagy flux (ratio of acidic to neutral mtKeima)” value is on record as “enhanced mitophagy flux”. The “Parkin melting temperature shift” value in test [3] stood at 3 °C.
